Assays:
[1] = test system: iodoacetic acid (MIA)-induced SD rat knee osteoarthritis model; test: Iodoacetic acid (MIA)-induced SD rat knee osteoarthritis model; type: in vivo, SD rats; settings: 30 mg/kg orally once a day from Day 7 to Day 42
Procedure: Purpose: Evaluate the efficacy of MCC950 (Positive reference compound) and compound 111 of the present disclosure on iodoacetic acid (MIA)-induced SD rat knee osteoarthritis model.
Experimental materials: Experimental male SD rats, 4 weeks old.
Model induction began after the experimental animals were adapted to the animal environment for 7 days. Day 0, the rats were anesthetized, the hair around the left knee joint was removed, and the skin was disinfected. The left leg was flexed 90° to expose the patellar platform. The depression in the middle of the platform was touched by hand to find the femoral condyle, patella and ligament. The syringe needle was inserted from the bottom of the patella on both sides of the patellar ligament to the direction of the femoral condyle. When a clear sense of empty space was felt, 50 μL of iodoacetic acid solution was injected. Day 7 Grouping was performed according to the width of the knee joint on the induced side. The groups were: normal control group (healthy control without modeling, 5% DMSO+10% Solutol+85% Saline), model blank control group (5% DMSO+10% Solutol+85% Saline), MCC950 30 mg/kg, and compound 111 of the present disclosure 30 mg/kg. Starting from Day 7, the normal control group and the model blank control group were given the solvent (5% DMSO+10% Solutol+85% Saline) orally once a day, and the other groups were given the corresponding compounds orally once a day until the end of the administration on Day 42. The knee joint width and body weight of the rats were measured once on Day 7, 14, 21, 28, 35, and 42.

[2] = molecular target: T1, hERG ion channel (Homo sapiens, UniProt Q12809); test: hERG ion channel inhibition, manual patch clamp in HEK293 cells; type: cell-based; settings: HEK293 cells stably expressing hERG, read-out: hERG(IC50, manupatch)
T1 construct: host or cells: HEK293
T1 sequence (Q12809 whole entry): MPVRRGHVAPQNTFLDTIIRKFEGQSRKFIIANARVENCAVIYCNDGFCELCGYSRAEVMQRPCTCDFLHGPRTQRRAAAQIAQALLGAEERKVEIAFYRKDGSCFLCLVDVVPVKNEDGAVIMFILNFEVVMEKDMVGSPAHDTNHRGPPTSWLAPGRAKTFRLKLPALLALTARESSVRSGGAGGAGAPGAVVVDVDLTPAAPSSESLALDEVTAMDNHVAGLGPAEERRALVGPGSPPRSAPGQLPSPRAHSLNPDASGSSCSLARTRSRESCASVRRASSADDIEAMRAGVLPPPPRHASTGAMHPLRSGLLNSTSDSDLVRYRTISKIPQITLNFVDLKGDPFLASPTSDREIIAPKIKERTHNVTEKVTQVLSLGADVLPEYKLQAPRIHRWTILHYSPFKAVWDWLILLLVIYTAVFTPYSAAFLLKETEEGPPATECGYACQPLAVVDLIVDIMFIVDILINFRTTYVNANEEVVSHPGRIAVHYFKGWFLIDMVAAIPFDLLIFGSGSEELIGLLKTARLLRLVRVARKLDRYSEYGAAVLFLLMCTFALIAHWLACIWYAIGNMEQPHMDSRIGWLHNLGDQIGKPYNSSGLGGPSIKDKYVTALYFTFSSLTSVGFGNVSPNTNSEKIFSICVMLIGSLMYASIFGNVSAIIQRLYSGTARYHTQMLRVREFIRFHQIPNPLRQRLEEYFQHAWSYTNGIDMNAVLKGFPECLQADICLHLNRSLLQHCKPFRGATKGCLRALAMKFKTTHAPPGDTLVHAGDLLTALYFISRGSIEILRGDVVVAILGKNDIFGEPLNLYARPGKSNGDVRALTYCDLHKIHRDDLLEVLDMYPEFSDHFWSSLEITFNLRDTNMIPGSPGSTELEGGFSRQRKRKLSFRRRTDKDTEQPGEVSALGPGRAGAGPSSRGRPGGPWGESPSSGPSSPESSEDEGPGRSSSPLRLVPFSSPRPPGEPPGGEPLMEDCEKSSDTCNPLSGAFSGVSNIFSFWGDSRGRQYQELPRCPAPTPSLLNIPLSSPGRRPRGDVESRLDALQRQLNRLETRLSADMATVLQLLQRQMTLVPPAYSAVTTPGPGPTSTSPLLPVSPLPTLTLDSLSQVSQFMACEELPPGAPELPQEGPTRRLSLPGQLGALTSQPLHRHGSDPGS
Procedure: This experiment used manual patch clamp electrophysiology to detect the inhibitory effect of compounds on hERG ion channels, and evaluated cardiac safety based on the single concentration inhibition rate or IC50 size of the compounds.
The cells used in this experiment are HEK293 cell lines transfected with hERG cDNA and stably expressing hERG channels (#60187, provided by BPS, P3-P23 generations are used for experimental research). Cells were cultured in a medium containing the following components: MEM medium, 10% (v/v) inactivated fetal bovine serum, 1 mM sodium pyruvate, […] geneticin, 0.1 mM non-essential amino acids, and 100 U penicillin-streptomycin. HEK293 hERG cells were grown in culture flasks containing the above culture medium and cultured in an incubator at 37° C. and 5% CO2. […]
The electrophysiological experiments were performed by a manual patch clamp system (HEKAEPC-10 signal amplifier and digital conversion system, purchased from HEKA Electronics, Germany) to record the whole-cell current. […] After the hERG current recorded in the above steps reaches stability under continuous perfusion of extracellular fluid in the recording tank, different concentrations of the test compound can be perfused until the inhibitory effect of the drug on the hERG current reaches a stable state. […]

[3] = test system: IL-1β secretion of THP-1 cells; test: Effect of NLRP3 inhibitor on IL-1β secretion of THP-1 cells (AlphaLISA); type: cell-based; settings: Homo sapiens; PMA, LPS and Nigericin stimulated THP-1 cells, IL-1β in supernatant; read-out: IC50 (nM), THP-1 cells to detect NLRP3 inhibitors
Procedure: This experiment used the PerkinElmer AlphaLISA_human_IL1β kit (AL220 C/F). The detection buffer was RPMI-1640+10FBS. AlphaLISA Immunoassay Buffer, AlphaLISA Anti-IL1β Acceptor beads, Streptavidin (SA)-coated Donor beads, and Biotinylated Antibody Anti-IL1β were all included in the kit.
The density of THP1 cells was adjusted to 4×10^5 cells/mL, PMA (final concentration 50 nM) was added, inoculated into 96-well flat-bottom plates at 200 μL/well, and stimulated overnight at 37° C., 5% CO2 (try to <16h). The next day, the supernatant was discarded, and the flat washed twice with DPBS ([…]/time). Then LPS solution (final concentration of 100 ng/ml) was added at 198 μL/well, incubated at 37° C., 5% CO2 for 3h. 1 μL of the corresponding concentration of compounds was added to each well according to the experimental MAP, incubated at 37° C., 5% CO2 for 1 h. 1 μL Nigericin (final concentration of […]) was added to each well, incubated overnight at 5% CO2 (>18h). On the third day, 5 μL of supernatant was taken, diluted 20 times, and the content of IL-Iβ in the supernatant was detected by Human Interleukin 1 beta (IL1β) Kit. Envision was used to read the AlphaLISA test value of Ex=680/[…]. GraphPad Prism 9.5.0 was used to analyze the data, and the IC50 value of the compound for IL-Iβ antagonism was fitted by four-parameter Logistic.

[4] = molecular target: T2, His6-Flag-TEV-NLRP3 (134-1036) (Homo sapiens, UniProt Q96P20); test: NLRP3 fluorescence polarization (FP) binding assay, competition with probe NP3-301; settings: competition with NP3-301 for binding to NLRP3 (134-1036), 30 nM protein
T2 construct: fused on or other part: N-terminal His6 tag, Flag tag and TEV cleavage site
T2 sequence (Q96P20 134-1036 limits assumed): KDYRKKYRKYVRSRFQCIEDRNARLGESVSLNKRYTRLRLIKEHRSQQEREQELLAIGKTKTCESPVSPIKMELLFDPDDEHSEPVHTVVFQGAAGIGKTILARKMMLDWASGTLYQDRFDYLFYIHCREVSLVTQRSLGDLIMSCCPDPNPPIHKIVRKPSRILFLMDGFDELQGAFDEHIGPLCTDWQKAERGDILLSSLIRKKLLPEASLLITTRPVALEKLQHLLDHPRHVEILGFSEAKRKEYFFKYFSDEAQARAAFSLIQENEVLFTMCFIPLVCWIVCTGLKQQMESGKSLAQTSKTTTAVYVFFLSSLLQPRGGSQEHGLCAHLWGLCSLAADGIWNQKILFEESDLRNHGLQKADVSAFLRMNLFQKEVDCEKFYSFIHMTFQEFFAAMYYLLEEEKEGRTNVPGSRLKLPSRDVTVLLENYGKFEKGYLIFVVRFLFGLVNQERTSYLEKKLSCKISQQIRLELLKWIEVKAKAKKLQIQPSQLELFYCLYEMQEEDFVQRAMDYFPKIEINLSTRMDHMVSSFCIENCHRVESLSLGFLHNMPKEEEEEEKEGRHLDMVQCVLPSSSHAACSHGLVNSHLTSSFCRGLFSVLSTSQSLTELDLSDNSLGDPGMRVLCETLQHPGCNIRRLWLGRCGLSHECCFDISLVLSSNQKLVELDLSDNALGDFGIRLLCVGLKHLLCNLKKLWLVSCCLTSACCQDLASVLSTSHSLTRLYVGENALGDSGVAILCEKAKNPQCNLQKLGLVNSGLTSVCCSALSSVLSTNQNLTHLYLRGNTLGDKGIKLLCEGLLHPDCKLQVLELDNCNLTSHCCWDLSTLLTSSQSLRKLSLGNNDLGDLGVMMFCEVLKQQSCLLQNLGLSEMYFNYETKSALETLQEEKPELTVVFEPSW
Procedure: This experiment uses fluorescence polarization technology to detect and evaluate the binding assay.
The fluorescent probe used in this assay is the compound NP3-301 in the Journal of Molecular Biology (2021) 433, 167309, which was synthesized with reference to this literature.
His6-Flag-TEV-NLRP3 (134-1036) protein (SEQ NO. 1) was purchased from Kaihuiruizhi Biotech (Shanghai) Co., Ltd. (ChemPartner), and was customed for expression.
Prepare 1× assay buffer: 50 mM Hepes, pH 7.4, 150 mM NaCl, 2.5 mM MgCl2, 0.005% Tween-20, 1 mM TCEP, 100 μM ATP.
First, 2.5 μL of 4× compound solution was added to a black shallow 384-well plate (Greiner, 784076), the shallow well plate was sealed, and centrifuged at 1000 rpm for 1 min; then 2× NLPR3 protein solution (final concentration of 30 nM) was added, the shallow well plate was sealed, centrifuged at 1000 rpm for 1 min, and incubated at room temperature for 60 min. Finally, 2.5 μL of 4× NP3-301 (final concentration of 0.5 nM) was added, the shallow well plate was sealed, centrifuged at 1000 rpm for 1 min, and incubated at room temperature for 30 min. Envision was used to read the fluorescence polarization values of λex=485+20 nm and kem=535+25 nm. GraphPad Prism 9.5.0 was used to analyze the data, and the IC50 value of the competition between the compound and NP3-301 for binding to His6-Flag-TEV-NLRP3 (134-1036) was fitted by four-parameter logistic. The compounds of the present disclosure have good NLRP3 binding activity, and the test results of some representative compounds are shown in Table 1.

Compound	body weight of the rats [1]	widening of the knee joints (knee joint width) ([1]; compared with model blank control group, 21 days to 42 days after modeling)	IC50 [2]	IC50 [3]	IC50 [4]
CC(C)(O)c1coc(S(=O)(=O)NC(=O)Nc2c3c(cc4c2CCC4)CCC3)c1 [MCC950]	without affecting the body weight of the rats	could significantly inhibit the widening of the knee joints			
Cc1cc(C(F)(F)F)cc(O)c1-c1ccc2oc(N3CCS(=O)(=O)CC3)nc2n1 [Compound 384]			> 30 µM	< 50 nM	≤ 0.1 µM
Cc1cc(C(F)(F)F)cc(O)c1-c1ccc2nc(N[C@@H]3CCCN(C)C3)nn2n1 [Compound 445]				< 50 nM	≤ 0.1 µM
Cc1cc(C(F)(F)F)cc(O)c1-c1ccn2nc(N3CCOCC3)nc2n1 [Compound 426]				< 50 nM	≤ 0.1 µM
Cc1cc(C(F)(F)F)cc(O)c1-c1ccc2oc(N[C@@H]3CCCN(C4CC4)C3)nc2n1 [Compound 399]				< 50 nM	≤ 0.1 µM
Cc1cc(C(F)(F)F)cc(O)c1-c1ccc2oc(N3CCOC[C@H]3C)nc2n1 [Compound 371]				50 to 100 nM	≤ 0.1 µM

— patent US20260234150A1, “COMPOUND FOR INHIBITING NLRP3, PREPARATION METHOD, AND USE” (DOVETREE MEDICINES UNUS, INC., priority 2023, published 2026)
